Values joined by “and” are separate entries in the source; they are usually repeats but may differ in a detail not shown here. Equal values may be shown once. Where a name gives a salt, the structure may show the parent alone.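 Cells were grown in 96-well plates and exposed to each compound for 48 hours at five concentrations; endpoints were interpolated linearly between bracketing concentrations, or set to the highest concentration if not reached. GI50 = concentration required for 50% inhibition of growth.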 Active and inactive are the calls of the source. Cut-off read from the data, not from the text of the source: active = GI50 up to about 1.1 µM and inactive = higher.
Legend:
Test in all cases: NCI tumour cell line growth inhibition, 48 h
786-0 = test system: 786-0
A498 = test system: A498
ACHN = test system: ACHN
CCRF-CEM = test system: CCRF-CEM
DU-145 = test system: DU-145
K562 = test system: K562
NCI-H226 = test system: NCI-H226
NCI-H23 = test system: NCI-H23
NCI-H460 = test system: NCI-H460
OVCAR-8 = test system: OVCAR-8
RPMI-8226 = test system: RPMI-8226
RXF 393 = test system: RXF 393
SF-268 = test system: SF-268
SK-MEL-28 = test system: SK-MEL-28
SN12C = test system: SN12C
SNB-19 = test system: SNB-19
SNB-75 = test system: SNB-75
T47D = test system: T47D
UACC-257 = test system: UACC-257
MDA-N = test system: MDA-N

| SMILES | GI50 (786-0) | GI50 (A498) | GI50 (ACHN) | GI50 (CCRF-CEM) | GI50 (DU-145) | GI50 (K562) | GI50 (NCI-H226) | GI50 (NCI-H23) | GI50 (NCI-H460) | GI50 (OVCAR-8) | GI50 (RPMI-8226) | GI50 (RXF 393) | GI50 (SF-268) | GI50 (SK-MEL-28) | GI50 (SN12C) | GI50 (SNB-19) | GI50 (SNB-75) | GI50 (T47D) | GI50 (UACC-257) | GI50 (MDA-N) |
| --- | --- | --- | --- | --- | --- | --- | --- | --- | --- | --- | --- | --- | --- | --- | --- | --- | --- | --- | --- | --- |
| O=C(O)C12C3CCC(O3)C1(C(=O)O)C1CCC2O1 (stereo not drawn) | > 100 µM (inactive) | > 100 µM (inactive) | > 100 µM (inactive) | > 100 µM (inactive) | > 100 µM (inactive) | > 100 µM (inactive) | > 100 µM (inactive) | > 100 µM (inactive) | > 100 µM (inactive) | > 100 µM (inactive) | > 100 µM (inactive) | > 100 µM (inactive) and 53.6 µM (inactive) | > 100 µM (inactive) | > 100 µM (inactive) | > 100 µM (inactive) | > 100 µM (inactive) | > 100 µM (inactive) | > 100 µM (inactive) | > 100 µM (inactive) | – |
| Cc1cc2[nH]c3c(C#N)c(-c4ccccc4)c(/N=N/c4ccc(F)cc4)c(=O)n3c2cc1C | 31 µM (inactive) | > 100 µM (inactive) | > 100 µM (inactive) | > 100 µM (inactive) | – | – | > 100 µM (inactive) | > 100 µM (inactive) | 83.9 µM (inactive) | – | > 100 µM (inactive) | > 100 µM (inactive) | 35.9 µM (inactive) | > 100 µM (inactive) | > 100 µM (inactive) | > 100 µM (inactive) | 36.2 µM (inactive) | 4.22 µM (inactive) | > 100 µM (inactive) | > 100 µM (inactive) |
| O=C1C(=Cc2c(O)cc(O)cc2O)C(=O)c2ccccc21 | > 42.1 µM (inactive) | 45.1 µM (inactive) | > 40.8 µM (inactive) | 29.9 µM (inactive) | 19.1 µM (inactive) | > 51.8 µM (inactive) | 36 µM (inactive) | > 39.4 µM (inactive) | > 45.5 µM (inactive) | > 41.7 µM (inactive) | 29 µM (inactive) | 14.3 µM (inactive) | > 45.4 µM (inactive) | > 45.8 µM (inactive) | 19.5 µM (inactive) | > 42.6 µM (inactive) | 26.3 µM (inactive) | – | > 42.5 µM (inactive) | – |
| O=C1c2ccccc2C2(O)N(c3ccccc3)C(=S)N(c3ccccc3)C12O (stereo not drawn) | > 100 µM (inactive) | > 100 µM (inactive) | > 100 µM (inactive) | > 100 µM (inactive) | – | > 100 µM (inactive) | > 100 µM (inactive) | > 100 µM (inactive) | > 100 µM (inactive) | > 100 µM (inactive) | > 100 µM (inactive) | > 100 µM (inactive) | > 100 µM (inactive) | > 100 µM (inactive) | > 100 µM (inactive) | > 100 µM (inactive) | > 100 µM (inactive) | – | > 100 µM (inactive) | – |
| O=C1CN(c2ccccc2)C(=O)CN1CCN1CC(=O)N(c2ccccc2)CC1=O | > 100 µM (inactive) | > 100 µM (inactive) | > 100 µM (inactive) | – | > 100 µM (inactive) | – | – | > 100 µM (inactive) | > 100 µM (inactive) | > 100 µM (inactive) | > 100 µM (inactive) | > 100 µM (inactive) | > 100 µM (inactive) | > 100 µM (inactive) | > 100 µM (inactive) | > 100 µM (inactive) | > 100 µM (inactive) | – | > 100 µM (inactive) | > 100 µM (inactive) |
| O=C(CC1C(=O)Nc2ccccc2S1(=O)=O)Nc1ccc(Cl)cc1 (stereo not drawn) | 14.5 µM (inactive) | 25.8 µM (inactive) | 20.4 µM (inactive) | 20.3 µM (inactive) | – | 18.2 µM (inactive) | 32.2 µM (inactive) | 38.9 µM (inactive) | 30.3 µM (inactive) | 26.4 µM (inactive) | 4.84 µM (inactive) | 15.9 µM (inactive) | 14.4 µM (inactive) | 20 µM (inactive) | 34 µM (inactive) | 18.8 µM (inactive) | 16.9 µM (inactive) | – | 14.9 µM (inactive) | – |
| [O-][S+]1CC[S+]([O-])CC[S+]([O-])CC1 (stereo not drawn) | > 100 µM (inactive) | – | – | > 100 µM (inactive) | > 100 µM (inactive) | > 100 µM (inactive) | – | > 100 µM (inactive) | > 100 µM (inactive) | > 100 µM (inactive) | – | – | > 100 µM (inactive) | > 100 µM (inactive) | > 100 µM (inactive) | > 100 µM (inactive) | > 100 µM (inactive) | > 100 µM (inactive) | > 100 µM (inactive) | > 100 µM (inactive) |
| OCC1OC(c2ccccc2)CC1O (stereo not drawn) | > 100 µM (inactive) | > 100 µM (inactive) | > 100 µM (inactive) | > 100 µM (inactive) | > 100 µM (inactive) | > 100 µM (inactive) | > 100 µM (inactive) | – | > 100 µM (inactive) | > 100 µM (inactive) | – | > 100 µM (inactive) | – | > 100 µM (inactive) | > 100 µM (inactive) | > 100 µM (inactive) | > 100 µM (inactive) | – | > 100 µM (inactive) | – |
| COCOC1C=CCCCC2=CC(C)=C(CC1)O2 (stereo not drawn) | > 100 µM (inactive) | > 100 µM (inactive) | > 100 µM (inactive) | 74.6 µM (inactive) | > 100 µM (inactive) | > 100 µM (inactive) | > 100 µM (inactive) | > 100 µM (inactive) | > 100 µM (inactive) | > 100 µM (inactive) | > 100 µM (inactive) | > 100 µM (inactive) | > 100 µM (inactive) | > 100 µM (inactive) | > 100 µM (inactive) | > 100 µM (inactive) | > 100 µM (inactive) | – | > 100 µM (inactive) | > 100 µM (inactive) |
| CN1CCc2cc3c4cc2C1Cc1ccc(cc1)Oc1cc(ccc1O)CC1c2c(cc(O)c(c2O4)O3)CCN1C (stereo not drawn) | 5.26 µM (inactive) | > 10 µM (inactive) | 7.52 µM (inactive) | 2.52 µM (inactive) | – | 0.9 µM (active) | 2.07 µM (inactive) | 3.6 µM (inactive) | 1.87 µM (inactive) | 2.86 µM (inactive) | 1.64 µM (inactive) | 3.24 µM (inactive) | 2.16 µM (inactive) | 1.8 µM (inactive) | 3.63 µM (inactive) | 2.83 µM (inactive) | 3.53 µM (inactive) | – | 1.95 µM (inactive) | – |
| Cc1ccc(S(=O)(=O)OCC/C(=C\[Si](C)(C)C)c2ccccc2)cc1 | > 100 µM (inactive) | > 100 µM (inactive) | > 100 µM (inactive) | > 100 µM (inactive) | – | > 100 µM (inactive) | > 100 µM (inactive) | > 100 µM (inactive) | > 100 µM (inactive) | > 100 µM (inactive) | > 100 µM (inactive) | > 100 µM (inactive) | > 100 µM (inactive) | > 100 µM (inactive) | > 100 µM (inactive) | > 100 µM (inactive) | > 100 µM (inactive) | – | > 100 µM (inactive) | – |
| CN(CCCCCl)P(=O)(OCc1ccc([N+](=O)[O-])o1)OCC1OC(n2ccc(N)nc2=O)C(O)C1O (stereo not drawn) | 13.4 µM (inactive) | – | 11.7 µM (inactive) | – | 6.93 µM (inactive) | 2.99 µM (inactive) | 11.4 µM (inactive) | 5.79 µM (inactive) | 2.29 µM (inactive) | 2.82 µM (inactive) | 1.57 µM (inactive) | 6.21 µM (inactive) | 7.6 µM (inactive) | 2.33 µM (inactive) | 3.52 µM (inactive) | 3.21 µM (inactive) | 0.571 µM (active) | 1.26 µM (inactive) | 2.21 µM (inactive) | 1.82 µM (inactive) |
| Fc1cccc(Cl)c1C1SCc2nc3cc4ccccc4cc3n21 (stereo not drawn) | 39.4 µM (inactive) | – | > 100 µM (inactive) | > 100 µM (inactive) | > 100 µM (inactive) | > 100 µM (inactive) | 33.8 µM (inactive) | > 100 µM (inactive) | – | 39.4 µM (inactive) | > 100 µM (inactive) | > 100 µM (inactive) | > 100 µM (inactive) | > 100 µM (inactive) | 61.1 µM (inactive) | 52.7 µM (inactive) | – | > 100 µM (inactive) | > 100 µM (inactive) | > 100 µM (inactive) |
| C=C1C(=O)C23CC1CCC2C12CO[C@@H]4OCC(C)(CC[C@@H]1OC3=O)C42 (stereo partly drawn) | 2.24 µM (inactive) | 19.4 µM (inactive) | 3.14 µM (inactive) | 2.38 µM (inactive) | – | 7.69 µM (inactive) | 20.7 µM (inactive) | 6.04 µM (inactive) | 6.64 µM (inactive) | 2.02 µM (inactive) | 1.57 µM (inactive) | 2.51 µM (inactive) | 6.32 µM (inactive) | 2.23 µM (inactive) | 8.32 µM (inactive) | 8 µM (inactive) | 16.4 µM (inactive) | – | 4.98 µM (inactive) | – |
| COC(=O)Nc1nc2cc(C(=O)c3cccs3)ccc2[nH]1 [NOCODAZOLE] | 0.0789 µM (active) | 0.0196 µM (active) | 0.225 µM (active) | 0.0145 µM (active) | – | < 0.0118 µM (active) | 0.0625 µM (active) | 0.0168 µM (active) | 0.0179 µM (active) | 0.029 µM (active) | < 0.0132 µM (active) | 0.0134 µM (active) | 0.0893 µM (active) | 0.0957 µM (active) | 0.074 µM (active) | 0.0857 µM (active) | – | > 80.9 µM (inactive) | < 0.148 µM (active) | 0.0124 µM (active) |
| NCCCCNCCCN [SPERMIDINE TRIHYDROCHLORIDE] | > 100 µM (inactive) | > 100 µM (inactive) | > 100 µM (inactive) | – | > 100 µM (inactive) | 67.8 µM (inactive) | > 100 µM (inactive) | > 100 µM (inactive) | > 100 µM (inactive) | > 100 µM (inactive) | – | > 100 µM (inactive) | > 100 µM (inactive) | > 100 µM (inactive) | – | > 100 µM (inactive) | > 100 µM (inactive) | > 100 µM (inactive) | > 100 µM (inactive) | – |
